Laboratory results from ChEMBL document CHEMBL5365497, “Developing Novel Coumarin-Containing Azoles Antifungal Agents by the Scaffold Merging Strategy for Treating Azole-Resistant Candidiasis” (J Med Chem, 2023).
Converted amounts (≈) assume the structure as drawn. The source made the active and inactive calls. No cut-off for these calls is given here.

Tests used:
[1] = Cytotoxicity against mouse J774.A1 cells assessed as cell growth inhibition by MTT assay; assay type: toxicity, cell-based
Candida albicans [2] = assay: Antifungal activity against Candida albicans CPCC400616 assessed as reduction in EFG1 expression at 2 ug/ml incubated for 12 hrs by RT-PCR analysis; assay type: functional, organism-based; conditions: dose 2.0 µg/ml
Candida albicans [3] = assay: Antifungal activity against Candida albicans CPCC400616 assessed as reduction in CPH1 expression at 2 ug/ml incubated for 12 hrs by RT-PCR analysis; assay type: functional, organism-based; conditions: dose 2.0 µg/ml
[4] = target: T1, Lanosterol 14-alpha demethylase (Candida albicans (strain SC5314 / ATCC MYA-2876) (Yeast), UniProt P10613); assay: Inhibition of CYP51 in Candida albicans SC5314 assessed as ergosterol level at 0.03125 ug/ml incubated for 24 hrs by GC-MS analysis (reference value: 97.58 %); parameters: scale not given: the % may be the effect or the level left; conditions: at 0.03125 µg/mL
Candida albicans [5] = assay: Antifungal activity against fluconazole-resistant Candida albicans 17# assessed as fungal growth inhibition by CLSI based microdilution method; assay type: functional
Candida albicans [6] = assay: Antifungal activity against fluconazole-resistant Candida albicans 904 assessed as reduction in EFG1 expression at 16 ug/ml incubated for 12 hrs by RT-PCR analysis; assay type: functional, organism-based; conditions: dose 16.0 µg/ml
Candida albicans [7] = assay: Antifungal activity against fluconazole-resistant Candida albicans 904 assessed as reduction in ALS3 expression at 16 ug/ml incubated for 12 hrs by RT-PCR analysis; assay type: functional, organism-based; conditions: dose 16.0 µg/ml
Candida albicans [8] = assay: Antifungal activity against fluconazole-resistant Candida albicans 632 assessed as fungal growth inhibition by CLSI based microdilution method; assay type: functional
Candida albicans [9] = assay: Antibiofilm activity against Candida albicans CPCC400616 incubated for 24 hrs by XTT reduction assay; assay type: functional, organism-based; conditions: dose <= 128.0 µg/ml
Candida albicans [10] = assay: Antifungal activity against Candida albicans CPCC400616 assessed as fungal growth inhibition by CLSI based microdilution method; assay type: functional
Candida albicans [11] = assay: Antifungal activity against fluconazole-resistant Candida albicans 904 assessed as fungal growth inhibition by CLSI based microdilution method; assay type: functional
Candida albicans [12] = assay: Antifungal activity against fluconazole-resistant Candida albicans 904 assessed as decrease in CDR1 expression at 16 ug/ml measured after 16 hrs by RT-PCR analysis; assay type: functional, organism-based; conditions: dose 16.0 µg/ml
Cryptococcus neoformans = assay: Antifungal activity against Cryptococcus neoformans assessed as fungal growth inhibition by CLSI based microdilution method; assay type: functional
Candida albicans [13] = assay: Antifungal activity against fluconazole-resistant Candida albicans 904 assessed as decrease in MDR1 expression at 16 ug/ml measured after 16 hrs by RT-PCR analysis; assay type: functional, organism-based; conditions: dose 16.0 µg/ml
Candida tropicalis = assay: Antifungal activity against Candida tropicalis assessed as fungal growth inhibition by CLSI based microdilution method; assay type: functional
[14] = Stability in mouse plasma assessed as half life at 1 uM measured for 180 mins by LC-MS/MS analysis; assay type: ADME, cell-free
[15] = Metabolic stability in mouse liver microsomes assessed as half life incubated for 5 to 60 mins by LC-MS/MS analysis; assay type: ADME, Microsome; conditions: time 5-60 min
Candida parapsilosis = assay: Antifungal activity against Candida parapsilosis assessed as fungal growth inhibition by CLSI based microdilution method; assay type: functional; conditions: Lodderomyces parapsilosis
Pichia kudriavzevii = assay: Antifungal activity against Pichia kudriavzevii assessed as fungal growth inhibition by CLSI based microdilution method; assay type: functional
Candida albicans [16] = assay: Antifungal activity against fluconazole-resistant Candida albicans 904 assessed as inhibition of yeast to hypha morphological transition at 16 ug/ml incubated for 4 hrs by inverted microscopy; assay type: functional, organism-based; conditions: dose 16.0 µg/ml
Candida albicans [17] = assay: Antifungal activity against Candida albicans CPCC400616 assessed as inhibition of yeast to hypha morphological transition at 2 ug/ml incubated for 4 hrs by inverted microscopy; assay type: functional, organism-based; conditions: dose 2.0 µg/ml
[18] = Stability in mouse plasma assessed as compound remaining at 1 uM measured for 180 mins by LC-MS/MS analysis; assay type: ADME, cell-free; conditions: read-out: Stability
Nakaseomyces glabratus = assay: Antifungal activity against Candida glabrata assessed as fungal growth inhibition by CLSI based microdilution method; assay type: functional
Candida albicans [19] = assay: Antifungal activity against Candida albicans SC5314 assessed as fungal growth inhibition by CLSI based microdilution method; assay type: functional
Candida albicans [20] = assay: Antifungal activity against Candida albicans CPCC400616 assessed as reduction in TEC1 expression at 2 ug/ml incubated for 12 hrs by RT-PCR analysis; assay type: functional, organism-based; conditions: dose 2.0 µg/ml
[21] = target: T1, Lanosterol 14-alpha demethylase; assay: Inhibition of CYP51 in Candida albicans SC5314 assessed as increase in lanosterol level at 0.03125 ug/ml incubated for 24 hrs by GC-MS analysis; conditions: at 0.03125 µg/mL
Candida albicans [22] = assay: Antibiofilm activity against fluconazole-resistant Candida albicans 904 incubated for 24 hrs by XTT reduction assay; assay type: functional, organism-based; conditions: dose <= 128.0 µg/ml
Candida albicans [23] = assay: Antifungal activity against fluconazole-resistant Candida albicans 901 assessed as fungal growth inhibition by CLSI based microdilution method; assay type: functional
Candida albicans [24] = assay: Antifungal activity against fluconazole-resistant Candida albicans CaR assessed as fungal growth inhibition by CLSI based microdilution method; assay type: functional
Candida albicans [25] = assay: Antifungal activity against fluconazole-resistant Candida albicans 904 assessed as reduction in TEC1 expression at 16 ug/ml incubated for 12 hrs by RT-PCR analysis; assay type: functional, organism-based; conditions: dose 16.0 µg/ml
Candida albicans [26] = assay: Antifungal activity against fluconazole-resistant Candida albicans 904 assessed as decrease in ERG11 expression at 16 ug/ml measured after 16 hrs by RT-PCR analysis; assay type: functional, organism-based; conditions: dose 16.0 µg/ml
Candida albicans [27] = assay: Antifungal activity against Candida albicans CPCC400616 assessed as reduction in ALS3 expression at 2 ug/ml incubated for 12 hrs by RT-PCR analysis; assay type: functional, organism-based; conditions: dose 2.0 µg/ml
[28] = target: T1, Lanosterol 14-alpha demethylase; assay: Inhibition of CYP51 in Candida albicans SC5314 assessed as increase in obtusifoliol level at 0.03125 ug/ml incubated for 24 hrs by GC-MS analysis; conditions: at 0.03125 µg/mL
Candida albicans [29] = assay: Antifungal activity against fluconazole-resistant Candida albicans 904 assessed as decrease in CDR2 expression at 16 ug/ml measured after 16 hrs by RT-PCR analysis; assay type: functional, organism-based; conditions: dose 16.0 µg/ml
Candida albicans [30] = assay: Induction of ROS production in fluconazole-resistant Candida albicans 904 at 64 ug/ml incubated for 30 mins by fluorescence microscopy; assay type: functional, organism-based; conditions: dose 64.0 µg/ml
[31] = target: T1, Lanosterol 14-alpha demethylase; assay: Inhibition of CYP51 in Candida albicans SC5314 assessed as increase in eburicol level at 0.03125 ug/ml incubated for 24 hrs by GC-MS analysis; conditions: at 0.03125 µg/mL
Candida albicans [32] = assay: Antifungal activity against fluconazole-resistant Candida albicans 904 assessed as reduction in CPH1 expression at 16 ug/ml incubated for 12 hrs by RT-PCR analysis; assay type: functional, organism-based; conditions: dose 16.0 µg/ml
[33] = Cytotoxicity against human MRC5 cells assessed as cell growth inhibition by MTT assay; assay type: toxicity, cell-based

T1 sequence (P10613 whole entry): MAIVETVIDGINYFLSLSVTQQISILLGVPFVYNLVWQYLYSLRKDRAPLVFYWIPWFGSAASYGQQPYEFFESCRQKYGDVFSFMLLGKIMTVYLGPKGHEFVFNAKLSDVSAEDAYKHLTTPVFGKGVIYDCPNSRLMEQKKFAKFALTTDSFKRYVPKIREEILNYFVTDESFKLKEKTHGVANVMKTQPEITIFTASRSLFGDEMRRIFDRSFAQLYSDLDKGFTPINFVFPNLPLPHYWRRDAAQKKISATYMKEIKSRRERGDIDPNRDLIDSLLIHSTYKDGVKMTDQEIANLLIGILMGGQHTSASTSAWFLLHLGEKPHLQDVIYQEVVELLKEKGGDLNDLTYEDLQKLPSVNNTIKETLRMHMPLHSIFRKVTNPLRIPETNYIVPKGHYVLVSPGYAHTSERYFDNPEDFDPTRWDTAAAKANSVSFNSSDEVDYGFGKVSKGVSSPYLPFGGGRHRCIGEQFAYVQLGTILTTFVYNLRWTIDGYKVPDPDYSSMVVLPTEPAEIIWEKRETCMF

Compound	IC50 [1]	Activity (Candida albicans [2])	Activity (Candida albicans [3])	Activity [4]	MIC (Candida albicans [5])	Activity (Candida albicans [6])	Activity (Candida albicans [7])	MIC (Candida albicans [8])	Activity (Candida albicans [9])	MIC (Candida albicans [10])	MIC (Candida albicans [11])	Activity (Candida albicans [12])	MIC (Cryptococcus neoformans)	Activity (Candida albicans [13])	MIC (Candida tropicalis)	half-life at 1 µM [14]	half-life [15]	MIC (Candida parapsilosis)	MIC (Pichia kudriavzevii)	inhibition (Candida albicans [16])	also measured
O=c1oc2ccccc2cc1COC(Cn1ccnc1)c1ccc(Cl)cc1Cl (stereo not given)	24.4 µM	Active	Active	16.17%	8 µg/mL (≈ 19.3 µM)	Active	Active	8 µg/mL (≈ 19.3 µM)	Dose-Dependent Effect	0.06 µg/mL (≈ 0.144 µM)	2 µg/mL (≈ 4.82 µM)	Active	0.015 µg/mL (≈ 0.0361 µM)	Active	0.5 µg/mL (≈ 1.2 µM)	34 min	2.8 min	< 0.25 µg/mL	0.25 µg/mL (≈ 0.602 µM)	Active	inhibition (Candida albicans [17]): Active; remaining at 3 h, 1 µM [18]: 2.2%; MIC (Nakaseomyces glabratus): 1 µg/mL (≈ 2.41 µM); MIC (Candida albicans [19]): 0.03 µg/mL (≈ 0.0722 µM); Activity (Candida albicans [20]): Active; inhibition (INH) [21]: Active; Activity (Candida albicans [22]): Dose-Dependent Effect; MIC (Candida albicans [23]): 4 µg/mL (≈ 9.63 µM); MIC (Candida albicans [24]): 0.5 µg/mL (≈ 1.2 µM); Activity (Candida albicans [25]): Active; Activity (Candida albicans [26]): Active; Activity (Candida albicans [27]): Active; inhibition (INH) [28]: Active; Activity (Candida albicans [29]): Active; Activity (Candida albicans [30]): Active; inhibition (INH) [31]: Active; Activity (Candida albicans [32]): Active
O=c1ccc2cc(COC(Cn3ccnc3)c3ccc(Cl)cc3Cl)ccc2o1 (stereo not given)	24.4 µM	Active	Active	0.99%	1 µg/mL (≈ 2.41 µM)	Active	Active	16 µg/mL (≈ 38.5 µM)	Dose-Dependent Effect	0.06 µg/mL (≈ 0.144 µM)	8 µg/mL (≈ 19.3 µM)	Active	4 µg/mL (≈ 9.63 µM)	Active	< 0.25 µg/mL	> 360 min	6.09 min	< 0.25 µg/mL	0.5 µg/mL (≈ 1.2 µM)	Active	inhibition (Candida albicans [17]): Active; remaining at 3 h, 1 µM [18]: 98.7%; MIC (Nakaseomyces glabratus): 0.25 µg/mL (≈ 0.602 µM); MIC (Candida albicans [19]): 0.03 µg/mL (≈ 0.0722 µM); Activity (Candida albicans [20]): Active; inhibition (INH) [21]: Active; Activity (Candida albicans [22]): Dose-Dependent Effect; MIC (Candida albicans [23]): 32 µg/mL (≈ 77.1 µM); MIC (Candida albicans [24]): 0.5 µg/mL (≈ 1.2 µM); Activity (Candida albicans [25]): Active; Activity (Candida albicans [26]): Active; Activity (Candida albicans [27]): Active; inhibition (INH) [28]: Active; Activity (Candida albicans [29]): Active; Activity (Candida albicans [30]): Active; IC50 [33]: 78.2 µM; inhibition (INH) [31]: Active; Activity (Candida albicans [32]): Active
